Like-named read-outs stand apart in the source and are kept apart here.
Legend:
[1] = test system: Key Broadleaf Weed and Crop Species; assay: Post-emergent Test II herbicidal activity (Table 5); format: in vivo; details: post-emergence, 336 h, 14 days after application; for pest or weed control at 70 g/ha: application rate 70 g ai/ha; for pest or weed control at 140 g/ha: application rate 140 g ai/ha
In short: (§1)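 Percent injury, 0 (none) to 100 (complete kill), was judged visually 14 d after spraying young plants at the first or second true leaf stage with compound in an acetone/DMSO aqueous carrier at 187 L/ha. Plants were kept in a greenhouse at 23–29 °C by day.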

[2] = test system: Key Grass and Sedge Weeds as well as Grass Crops; assay: Post-emergent Test II herbicidal activity (Table 6); format: in vivo; details: post-emergence, 336 h; for pest or weed control at 70 g/ha: 70 g ai/ha; for pest or weed control at 140 g/ha: 140 g ai/ha
In short: as §1

[3] = ABUTH: velvetleaf (Abutilon theophrasti), read-out: Visual Growth Reduction (%) 14 Days After Application, ABUTH
[4] = AMARE: redroot pigweed (Amaranthus retroflexus), read-out: Visual Growth Reduction (%) 14 Days After Application, AMARE
[5] = BRSNN: oilseed-rape, canola (Brassica napus), read-out: Visual Growth Reduction (%) 14 Days After Application, BRSNN
[6] = CHEAL: lambsquarters (Chenopodium album), read-out: Visual Growth Reduction (%) 14 Days After Application, CHEAL
[7] = EPHHL: wild poinsettia (Euphorbia heterophylla), read-out: Visual Growth Reduction (%) 14 Days After Application, EPHHL
[8] = HELAN: sunflower (Helianthus annuus), read-out: Visual Growth Reduction (%) 14 Days After Application, HELAN
[9] = VIOTR: wild pansy (Viola tricolor), read-out: Visual Growth Reduction (%) 14 Days After Application, VIOTR
[10] = CYPES: yellow nutsedge (Cyperus esculentus), read-out: Visual Growth Reduction (%) 14 Days After Application, CYPES
[11] = DIGSA: crabgrass (Digitaria sanguinalis), read-out: Visual Growth Reduction (%) 14 Days After Application, DIGSA
[12] = ECHCG: barnyardgrass (Echinochloa crus-galli), read-out: Visual Growth Reduction (%) 14 Days After Application, ECHCG
[13] = ORYSA: rice (Oryza sativa), crop, read-out: Visual Growth Reduction (%) 14 Days After Application, ORYSA
[14] = SETFA: giant foxtail (Setaria faberi), read-out: Visual Growth Reduction (%) 14 Days After Application, SETFA
[15] = SORVU: grain sorghum (Sorghum vulgare), read-out: Visual Growth Reduction (%) 14 Days After Application, SORVU
[16] = TRZSS (wheat, Triticum aestivum), crop, read-out: Visual Growth Reduction (%) 14 Days After Application, TRZSS
[17] = ZEAMX: maize, corn (Zea mays), crop, read-out: Visual Growth Reduction (%) 14 Days After Application, ZEAMX

Question: Which pest or weed control at 70 g/ha [1, 3] does the source give for Nc1c(F)c(-c2ccc(I)cc2F)nc(C(=O)O)c1Cl [Compound 169] here?
Answer: Its pest or weed control at 70 g/ha is 85 to 94%.

Question: What about the pest or weed control at 140 g/ha [1, 3] of the same molecule?
Answer: Its pest or weed control at 140 g/ha is 85 to 94%.

Question: What about the pest or weed control at 70 g/ha [1, 4] of the same molecule?
Answer: The pest or weed control at 70 g/ha was 95 to 100%.

Question: And the pest or weed control at 140 g/ha [1, 4]?
Answer: The pest or weed control at 140 g/ha was 95 to 100%.

Question: What about the pest or weed control at 70 g/ha [1, 5] of the same molecule?
Answer: Its pest or weed control at 70 g/ha is 95 to 100%.

Question: And the pest or weed control at 140 g/ha [1, 5]?
Answer: Its pest or weed control at 140 g/ha is 95 to 100%.

Question: And the pest or weed control at 70 g/ha [1, 6]?
Answer: The pest or weed control at 70 g/ha was 95 to 100%.

Question: And the pest or weed control at 140 g/ha [1, 6]?
Answer: Its pest or weed control at 140 g/ha is 95 to 100%.

Question: And the pest or weed control at 70 g/ha [1, 7]?
Answer: The pest or weed control at 70 g/ha was 95 to 100%.

Question: And the pest or weed control at 140 g/ha [1, 7]?
Answer: The pest or weed control at 140 g/ha was 95 to 100%.

Question: What about the pest or weed control at 70 g/ha [1, 8] of the same molecule?
Answer: Its pest or weed control at 70 g/ha is 95 to 100%.

Question: What about the pest or weed control at 140 g/ha [1, 8] of the same molecule?
Answer: Its pest or weed control at 140 g/ha is 95 to 100%.

Question: What about the pest or weed control at 70 g/ha [1, 9] of the same molecule?
Answer: Its pest or weed control at 70 g/ha is 95 to 100%.

Question: What about the pest or weed control at 140 g/ha [1, 9] of the same molecule?
Answer: The pest or weed control at 140 g/ha was 95 to 100%.

Question: And the pest or weed control at 70 g/ha [2, 10]?
Answer: Its pest or weed control at 70 g/ha is 95 to 100%.

Question: What about the pest or weed control at 140 g/ha [2, 10] of the same molecule?
Answer: Its pest or weed control at 140 g/ha is 95 to 100%.

Question: What about the pest or weed control at 70 g/ha [2, 11] of the same molecule?
Answer: Its pest or weed control at 70 g/ha is 75 to 84%.

Question: And the pest or weed control at 140 g/ha [2, 11]?
Answer: Its pest or weed control at 140 g/ha is 85 to 94%.

Question: What about the pest or weed control at 70 g/ha [2, 12] of the same molecule?
Answer: The pest or weed control at 70 g/ha was 75 to 84%.

Question: What about the pest or weed control at 140 g/ha [2, 12] of the same molecule?
Answer: The pest or weed control at 140 g/ha was 75 to 84%.

Question: And the pest or weed control at 70 g/ha [2, 13]?
Answer: Its pest or weed control at 70 g/ha is 30 to 44%.

Question: And the pest or weed control at 140 g/ha [2, 13]?
Answer: Its pest or weed control at 140 g/ha is 30 to 44%.

Question: And the pest or weed control at 70 g/ha [2, 14]?
Answer: Its pest or weed control at 70 g/ha is 95 to 100%.

Question: And the pest or weed control at 140 g/ha [2, 14]?
Answer: The pest or weed control at 140 g/ha was 95 to 100%.

Question: What about the pest or weed control at 70 g/ha [2, 15] of the same molecule?
Answer: Its pest or weed control at 70 g/ha is 95 to 100%.

Question: What about the pest or weed control at 140 g/ha [2, 15] of the same molecule?
Answer: The pest or weed control at 140 g/ha was 95 to 100%.

Question: And the pest or weed control at 70 g/ha [2, 16]?
Answer: The pest or weed control at 70 g/ha was 30 to 44%.

Question: What about the pest or weed control at 140 g/ha [2, 16] of the same molecule?
Answer: Its pest or weed control at 140 g/ha is 45 to 59%.

Question: And the pest or weed control at 70 g/ha [2, 17]?
Answer: Its pest or weed control at 70 g/ha is 95 to 100%.

Question: What about the pest or weed control at 140 g/ha [2, 17] of the same molecule?
Answer: The pest or weed control at 140 g/ha was 95 to 100%.

Question: What about the melting point of the same molecule?
Answer: The melting point was 152 to 155 °C.
